Patent publication US5747327A, “Phospholipase D gene originated from plant” (priority 1993, dated 1998)

How the values were obtained:
[1] = biological target: T1, rice bran phospholipase D (PLD), Oryza sativa variety Koshihikari, eluted solution Mono Q 2nd-II (Oryza sativa, UniProt Q43007); experiment: Km of purified rice bran PLD, fraction Mono Q 2nd-II (choline oxidase method); assay type: biochemical; details: Mono Q 2nd-II fraction; phosphatidylcholine as the substrate, choline quantified by choline oxidase method
T1 construct: processed N-terminus (residues 1-46 removed according to earlier note), precursor 812 aa
Experimental: (§1) For the purification, a reference relating to the purification of rice bran PLD (Takano et al., J. Jpn. Soc. Food Sci. Technol., 34, 8-13 (1987)) was referred. The enzyme activity was measured by using phosphatidylcholine as the substrate and by quantifying the choline generated by the enzyme reaction by the choline oxidase method (Imamura et al., J. Biochem. 83, 677-680 (1978)). The enzyme reaction, however, was stopped by heat treatment at 95° C. for 5 minutes.
(§2) The two fractions were analyzed for properties of the enzymes contained therein. […] The pH stability means the range in which decrease in activity was not observed after leaving the enzyme to stand at 25° C. for 30 minutes. The temperature stability was measured by measuring remaining activity after leaving the enzyme to stand at 4° C., 25° C., 37° C. or 50° C. for 30 minutes. The substrate specificity was measured at a substrate concentration of 5 mM and is expressed as a relative activity taking the enzyme activity to phosphatidylcholine as 100.

[2] = biological target: T2, rice bran phospholipase D (PLD), Oryza sativa variety Koshihikari, eluted solution Mono Q 2nd-I (Oryza sativa, UniProt Q43007); experiment: Km of purified rice bran PLD, fraction Mono Q 2nd-I (choline oxidase method); assay type: biochemical; details: Mono Q 2nd-I fraction; phosphatidylcholine as the substrate, choline quantified by choline oxidase method
T2 construct: processed N-terminus (residues 1-46 removed according to earlier note), precursor 812 aa
Experimental: as §1, §2

T2 sequence (Q43007 47-812 P139S): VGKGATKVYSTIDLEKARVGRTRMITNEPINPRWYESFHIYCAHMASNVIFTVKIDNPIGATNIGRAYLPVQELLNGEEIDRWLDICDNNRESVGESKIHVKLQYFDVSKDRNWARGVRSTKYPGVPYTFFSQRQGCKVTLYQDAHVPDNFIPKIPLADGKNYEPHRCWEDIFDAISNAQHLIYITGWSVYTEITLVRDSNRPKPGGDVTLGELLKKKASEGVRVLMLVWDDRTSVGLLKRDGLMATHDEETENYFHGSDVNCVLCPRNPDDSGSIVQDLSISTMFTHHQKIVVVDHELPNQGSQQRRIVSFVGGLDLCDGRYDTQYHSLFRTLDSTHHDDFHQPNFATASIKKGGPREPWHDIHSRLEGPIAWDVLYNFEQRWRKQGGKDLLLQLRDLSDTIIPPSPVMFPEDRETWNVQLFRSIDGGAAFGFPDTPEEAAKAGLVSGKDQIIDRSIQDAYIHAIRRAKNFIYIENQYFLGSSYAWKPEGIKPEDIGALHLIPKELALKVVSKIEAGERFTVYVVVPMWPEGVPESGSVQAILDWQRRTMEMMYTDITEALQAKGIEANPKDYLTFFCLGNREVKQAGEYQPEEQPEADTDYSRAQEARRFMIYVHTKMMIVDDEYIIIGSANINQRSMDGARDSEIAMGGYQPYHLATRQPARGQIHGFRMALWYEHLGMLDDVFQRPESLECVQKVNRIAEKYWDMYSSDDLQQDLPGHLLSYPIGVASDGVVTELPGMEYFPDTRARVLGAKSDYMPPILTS
T1 sequence (Q43007 47-812 P139S): as above

phosphatidylcholine
Km [1]: 290 µM
Km [2]: 290 µM
